# In patent US20050037989A1, “Inhibition of gene function by delivery of polynucleotide-based gene expression inhibitors to mammalian cells in vivo” (priority 2001, published 2005):
# d = 2'-deoxy (DNA); r = 2'-OH (RNA)
# System: Luc+ expression
# Assay: Dual luciferase in muscle after iliac artery delivery of plasmids and siRNA
# Type: in vivo, rats
# Settings: 5.0 μg siRNA, four days, compared to control siRNA-ori
# Description: Inhibition of Luciferase expression by siRNA is gene specific and siRNA specific in muscle in vivo after arterial delivery. 10 μg pGL3 control and 1 μg pRL-SV40 with 5.0 μg siRNA-luc+ or 5.0 siRNA-ori were injected into iliac artery of rats under increased pressure. Specifically, animals were anesthetized and the surgical field shaved and prepped with an antiseptic. The animals were placed on a heating pad to prevent loss of body heat during the surgical procedure. A midline abdominal incision will be made after which skin flaps were folded away and held with clamps to expose the target area. A moist gauze was applied to prevent excessive drying of internal organs. Intestines were moved to visualize the iliac veins and arteries. Microvessel clips were placed on the external iliac, caudal epigastric, internal iliac, deferent duct, and gluteal arteries and veins to block both outflow and inflow of the blood to the leg. An efflux enhancer solution (e.g., 0.5 mg papaverine in 3 ml saline) was injected into the external iliac artery though a 25 g needle, followed by the plasmid DNA and siRNA containing solution (in 10 ml saline) 1-10 minutes later. The solution was injected in approximately 10 seconds. The microvessel clips were removed 2 minutes after the injection and bleeding was controlled with pressure and gel foam. The abdominal muscles and skin were closed with 4-0 dexon suture. […]
substance,measurement,value
"siRNA-luc+: annealed oligomers SEQ ID 4 and SEQ ID 5 containing luc+ coding sequence, positions 155-173 of the luc+ reading frame (chain 1 CUUACGCUGAGUACUUCGATT; chain 2 UCGAAGUACUCAGCGUAAGTT; sugars from the 5' end r19 d2, backbone not given here; listed as Photinus pyralis)",inhibition of Luc+ expression in gastrocnemius,92%
same,inhibition of Luc+ expression in quadriceps,85%
